Assay results: patent US11554182B2, “Macrocyclic complexes of alpha-emitting radionuclides and their use in targeted radiotherapy of cancer” (CORNELL UNIVERSITY, priority 2017, dated 2023)

Test: In vivo biodistribution of ^225Ac complexes after intravenous injection
Design: species or system C57BL/6 mice
Description: In Vivo Biodistribution of ^225Ac Complexes of Macropa and DOTA. All experiments were approved by the Institutional Animal Care Committee (IACC) of the University of British Columbia and were performed in accordance with the Canadian Council on Animal Care Guidelines. A total of 9 female C57BL/6 mice (6-8 weeks old, 20-25 g) were used for the biodistribution study of each radiometal complex, n=3 for each time point.
Macropa (100 μL of a 1 mg/mL solution in NH4OAc) was diluted with 387 μL of NH4OAc (1 M, pH 7), and an aliquot (203 μL) of ^225Ac(NO3)3 (˜157 kBq) was then added; the pH of this solution was adjusted to 6.5-7 by the addition of 1 M NaOH (210 μL, trace metal grade). After 5 min at ambient temperature, the reaction solution was analyzed by TLC (0.4 M pH 4 sodium citrate as the eluent), which confirmed >95% radiochemical yield. The reaction was allowed to proceed overnight, and the radiochemical yield was again confirmed to be >95% the following morning. At this time, mice were anesthetized by 2% isoflurane, and approximately 100 μL (10-15 kBq) of the [^225Ac(macropa)]^+ complex were injected into the tail vein of each mouse. After injection, mice were allowed to recover and roam freely in their cages, and were euthanized by CO2 inhalation at 15 min, 1 h, or 5 h (n=3 at each time point) post-injection. Blood was collected by cardiac puncture and placed into an appropriate test tube for scintillation counting. Tissues collected included heart, liver, kidneys, lungs, small intestine, large intestine, brain, bladder, spleen, stomach, pancreas, bone, thyroid, tail, urine, and feces. Tissues were weighed and then counted with a calibrated gamma counter (Packard, Cobra II model 5002) using three energy windows: 60-120 keV (window A), 180-260 keV (window B), and 400-480 keV (window C). Counting was performed both immediately after sacrifice and after 7 days; counts were decay corrected from the time of injection and then converted to the percentage of injected dose (% ID) per gram of tissue (% ID/g). No differences were noted between the data; therefore, the biodistributions are reported using the data acquired immediately using window A.
The biodistribution studies of [^225Ac(DOTA)]^− and ^225Ac(NO3)3 were carried out as described above for [^225Ac(macropa)]^+, with the following modifications. [^225Ac(DOTA)]^− was prepared by adding ^225Ac(NO3)3 (338 μL, 1.1 MBq) to a solution of DOTA (100 μg, 20 mg/mL in H2O) in NH4OAc (467 μL, 0.15 M, pH 7). The pH of the solution was adjusted to 7 using NH4OAc (150 μL, 1 M, pH 7) and the solution was heated at 85° C. for 45 min. RCY>99% was confirmed by TLC as described above. [^225Ac(DOTA)]^− was diluted with saline to a final concentration of 0.05 MBq/100 μL, and 100 μL were injected into each mouse. ^225Ac(NO3)3 (˜58 μL, 0.4 MBq) was diluted and injected in the same manner as [^225Ac(DOTA)]^−. One mouse that was to be euthanized at the 5 h time point in the [^225Ac(DOTA)]^− study died shortly after injection. In the same manner, one mouse that was to be euthanized at the 1 h time point in the ^225Ac(NO3)3 study died.
The in vivo stability [^225Ac(macropa)]^+ was examined by comparing its biodistribution to those of ^225Ac(NO3)3 and [^225Ac(DOTA)]^−. C57BL/6 mice were injected via tail vein with 10-50 kBq of each radiometal complex and were sacrificed after 15 min, 1 h, or 5 h. The amount of ^225Ac retained in each organ was quantified by gamma counting and reported as the percent of injected dose per gram of tissue (% ID/g). The results of these studies are compiled in Tables 1-3. Inadequate stability of an ^225Ac complex leading to the loss of radioisotope in vivo is manifested by the accumulation of ^225Ac in the liver, spleen, and bone of mice.^[11,12,32] […] The biodistribution profile of [^225Ac(macropa)]^+ (FIG. 3B) differs markedly from that of ^225Ac(NO3)3. […]

[1] = 1 h after i.v. injection, energy window B (180-260 keV)
[2] = 1 h after i.v. injection, energy window C (400-480 keV)
[3] = 5 h after i.v. injection, energy window A (60-120 keV)
[4] = 5 h after i.v. injection, energy window B (180-260 keV)
[5] = 5 h after i.v. injection, energy window C (400-480 keV)
[6] = i.v. injection, C57BL/6 mice, up to 5 h

## O=[N+]([O-])[O-].O=[N+]([O-])[O-].O=[N+]([O-])[O-].[225Ac] [^225Ac(NO3)3]
[1]
  % ID/g in lungs: 8.4426 % ID/g
  % ID/g in pancreas: 2.1579 % ID/g
  % ID/g in small intestines: 1.5192 % ID/g
  % ID/g in spleen: 37.1540 % ID/g
  % ID/g in stomach: 1.5867 % ID/g
  % ID/g in tail: 6.4201 % ID/g
  % ID/g in thyroids: 5.7426 % ID/g
  % ID/g in urine: 7.0564 % ID/g
[2]
  % ID/g in bladder: 2.2929 % ID/g
  % ID/g in blood: 11.3736 % ID/g
  % ID/g in bone (femur + joint): 2.7213 % ID/g
  % ID/g in brain: 0.4402 % ID/g
  % ID/g in feces: 0.1122 % ID/g
  % ID/g in heart: 3.3464 % ID/g
  % ID/g in kidneys: 6.2070 % ID/g
  % ID/g in large intestines: 0.4366 % ID/g
  % ID/g in liver: 23.6180 % ID/g
  % ID/g in lungs: 5.2078 % ID/g
  % ID/g in pancreas: 1.8508 % ID/g
  % ID/g in small intestines: 3.5548 % ID/g
  % ID/g in spleen: 38.1082 % ID/g
  % ID/g in stomach: 2.3350 % ID/g
  % ID/g in tail: 9.0877 % ID/g
  % ID/g in thyroids: 0.0000 % ID/g
  % ID/g in urine: 104.9103 % ID/g
[3]
  % ID/g in bladder: 1.4947 % ID/g
  % ID/g in blood: 1.9886 % ID/g
  % ID/g in bone (femur + joint): 3.5460 % ID/g
  % ID/g in brain: 0.0452 % ID/g
  % ID/g in feces: 0.9445 % ID/g
  % ID/g in heart: 1.3450 % ID/g
  % ID/g in kidneys: 4.6910 % ID/g
  % ID/g in large intestines: 0.6479 % ID/g
  % ID/g in liver: 59.8156 % ID/g
  % ID/g in lungs: 4.1871 % ID/g
  % ID/g in pancreas: 0.4874 % ID/g
  % ID/g in small intestines: 1.3704 % ID/g
  % ID/g in spleen: 62.9614 % ID/g
  % ID/g in stomach: 2.6131 % ID/g
  % ID/g in tail: 23.4055 % ID/g
  % ID/g in thyroids: -2.7052 % ID/g
  % ID/g in urine: 4.8267 % ID/g
[4]
  % ID/g in bladder: 1.5234 % ID/g
  % ID/g in blood: 2.0018 % ID/g
  % ID/g in bone (femur + joint): 3.8533 % ID/g
  % ID/g in brain: 0.0290 % ID/g
  % ID/g in feces: 1.0201 % ID/g
  % ID/g in heart: 1.3948 % ID/g
  % ID/g in kidneys: 3.8752 % ID/g
  % ID/g in large intestines: 0.6744 % ID/g
  % ID/g in liver: 62.0765 % ID/g
  % ID/g in lungs: 4.3379 % ID/g
  % ID/g in pancreas: 0.4455 % ID/g
  % ID/g in small intestines: 1.2201 % ID/g
  % ID/g in spleen: 65.9117 % ID/g
  % ID/g in stomach: 2.5322 % ID/g
  % ID/g in tail: 25.4744 % ID/g
  % ID/g in thyroids: −4.6044 % ID/g
  % ID/g in urine: 3.3142 % ID/g
[5]
  % ID/g in bladder: 3.4975 % ID/g
  % ID/g in blood: 2.1769 % ID/g
  % ID/g in bone (femur + joint): 3.5851 % ID/g
  % ID/g in brain: 0.0430 % ID/g
  % ID/g in feces: 0.8535 % ID/g
  % ID/g in heart: 1.2018 % ID/g
  % ID/g in kidneys: 4.2061 % ID/g
  % ID/g in large intestines: 1.0259 % ID/g
  % ID/g in liver: 54.1727 % ID/g
  % ID/g in lungs: 5.4923 % ID/g
  % ID/g in pancreas: 0.4643 % ID/g
  % ID/g in small intestines: 1.2922 % ID/g
  % ID/g in spleen: 62.2357 % ID/g
  % ID/g in stomach: 2.0358 % ID/g
  % ID/g in tail: 28.4443 % ID/g
  % ID/g in thyroids: -0.4455 % ID/g
  % ID/g in urine: 5.8548 % ID/g
[6]
  clearance from blood / mice (in words): slow blood clearance and excretion
  organ accumulation (in words): large accumulation in the liver and spleen
